Source: US9365551B2, “2-(benzyloxy) benzamides as LRRK2 kinase inhibitors” (Glaxo Group Limited, priority 2010, dated 2016)

Key:
[1] = target: T1, 6His-Tev-LRRK2 (1326-2527) (Homo sapiens, UniProt Q5S007); assay: LRRK2 AlphaScreen desensitised protein substrate assay; assay type: biochemical; details: mean pIC50 of multiple test results
T1 construct: A LRRK2 cDNA encoding residues 1326-2527 was received from Dundee University; made in house; host or cells: Spodoptera frugiperda (Sf9) insect cells, baculovirus (pFB-HTb)
T1 sequence (Q5S007 1326-2527): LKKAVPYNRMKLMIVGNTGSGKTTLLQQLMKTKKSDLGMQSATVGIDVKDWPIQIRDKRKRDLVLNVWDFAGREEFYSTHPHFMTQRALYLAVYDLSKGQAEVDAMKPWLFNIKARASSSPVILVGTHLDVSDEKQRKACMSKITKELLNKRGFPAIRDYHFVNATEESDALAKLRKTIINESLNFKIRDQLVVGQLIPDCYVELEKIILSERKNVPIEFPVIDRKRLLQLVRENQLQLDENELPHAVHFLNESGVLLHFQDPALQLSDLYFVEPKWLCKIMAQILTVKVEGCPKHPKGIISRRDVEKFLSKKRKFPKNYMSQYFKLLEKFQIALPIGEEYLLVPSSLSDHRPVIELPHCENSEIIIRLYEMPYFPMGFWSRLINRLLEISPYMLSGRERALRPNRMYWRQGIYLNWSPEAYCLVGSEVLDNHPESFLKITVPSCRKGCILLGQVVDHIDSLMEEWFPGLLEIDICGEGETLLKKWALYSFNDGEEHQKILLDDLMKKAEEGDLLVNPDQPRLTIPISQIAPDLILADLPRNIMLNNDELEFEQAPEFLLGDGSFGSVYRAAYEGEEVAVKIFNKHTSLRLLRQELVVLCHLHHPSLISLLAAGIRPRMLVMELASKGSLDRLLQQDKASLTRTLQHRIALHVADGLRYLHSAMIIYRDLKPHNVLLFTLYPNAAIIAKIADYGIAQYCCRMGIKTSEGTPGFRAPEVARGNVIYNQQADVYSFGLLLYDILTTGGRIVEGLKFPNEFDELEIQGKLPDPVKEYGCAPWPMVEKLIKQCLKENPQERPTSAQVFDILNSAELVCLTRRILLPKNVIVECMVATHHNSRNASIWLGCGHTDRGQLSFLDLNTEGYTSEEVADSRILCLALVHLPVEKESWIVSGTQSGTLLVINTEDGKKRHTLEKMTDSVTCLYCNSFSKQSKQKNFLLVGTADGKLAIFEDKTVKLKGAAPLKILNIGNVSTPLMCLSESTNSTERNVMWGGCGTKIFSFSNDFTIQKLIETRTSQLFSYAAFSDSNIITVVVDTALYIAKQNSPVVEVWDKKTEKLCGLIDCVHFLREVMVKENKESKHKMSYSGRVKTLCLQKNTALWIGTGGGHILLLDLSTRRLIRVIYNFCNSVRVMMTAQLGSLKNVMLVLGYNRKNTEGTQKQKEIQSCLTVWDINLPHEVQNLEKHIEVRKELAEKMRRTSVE
Procedure: (§1) Compounds of formula (I) may be tested for in vitro kinase activity in accordance with the following assays, using the non natural, in vitro, substrates moesin and the Longer Biotin-LRRKtide. Moesin and a shorter version of the peptide were identified as substrates in Jaleel et al. (2007, Biochem J, 405: 307-317).
(§2) b) 3 μl enzyme solution (80 nM purified recombinant 6His-Tev-LRRK2 (1326-2527) in assay buffer: 50 mM Hepes (pH 7.2), 10 mM MgCl2, 150 mM NaCl, 5% glycerol, 0.0025% triton X-100 and 1 mM DTT) is added to certain wells. 3 μl assay buffer is added to certain wells as a 100% inhibition (no enzyme) control. c) After incubation at room temperature for 30 minutes, 3 μl substrate solution (2 μM Biotin-LRRKtide peptide substrate and ATP at Km in assay buffer) is added to each well. Plates are then incubated for a further 1-2 hours at room temperature (incubation time varies depending upon rate and linearity of reaction with differing enzyme batches). d) 6 μl detection solution (50 nM Streptavidin SureLight® APC (PerkinElmer), 4 nM Eu-W1024 labelled anti-rabbit IgG antibody (PerkinElmer), 1:500 dilution (dilution determined on a batch to batch basis) of Phospho-Ezrin (Thr567)/Radixin (Thr564)/Moesin (Thr558) Polyclonal Antibody (New England Biolabs) and 60 mM EDTA in buffer: 40 mM Hepes (pH 7.2), 150 mM NaCl, 0.03% BSA) is added to each well. Plates are then incubated for a further 2 hours at room temperature before reading on a suitable plate reader (Excitation 330 nm, emission 620 nm (Eu) and 665 nm (APC)). Data is analysed using ActivityBase software (IDBS). LRRK2 AlphaScreen Desensitised Protein Substrate Assay a) 100 nl of a 1:4 serial dilution of test compound with a top final assay concentration of 30 μM is added to certain wells in a low volume 384 well black plate. 100 nl of DMSO is used in certain wells as controls. b) 3 μl enzyme solution (80 nM purified recombinant 6His-Tev-LRRK2 (1326-2527) in assay buffer: 50 mM Hepes (pH 7.2), 10 mM MgCl2, 150 mM NaCl, 5% glycerol, 0.0025% triton X-100 and 1 mM DTT) is added to certain wells. 3 μl assay buffer is added to certain wells as a 100% inhibition (no enzyme) control. c) After incubation at room temperature for 30 minutes, 3 μl substrate solution (200 nM GST-PS-Moesin (400-577) and 2 mM ATP in assay buffer) is added to each well. Plates are then incubated for 20 minutes at room temperature. d) 6 μl detection solution (1:250 dilution of AlphaLisa Protein A Acceptor beads (PerkinElmer), 1:64 dilution of AlphaLisa Gluthathione Donor beads (PerkinElmer) and 1:600 dilution (dilution determined on a batch to batch basis) of Phospho-Ezrin (Thr567)/Radixin (Thr564)/Moesin (Thr558) Polyclonal Antibody (New England Biolabs) in a buffer: 50 mM Hepes (pH 7.5), 250 mM NaCl, 60 mM EDTA, 1% PEG and 0.01% Brij 35) is added to each well. Plates are then incubated for a further 2 hours at room temperature in the dark before reading on an EnVision™ plate reader with AlphaScreen HTS turbo option module and AlphaScreen settings. Data is analysed using ActivityBase software (IDBS). Pharmacological Data

[2] = target: T1, 6His-Tev-LRRK2 (1326-2527); assay: LRRK2 peptide substrate assay; assay type: biochemical; details: mean pIC50 of multiple test results
Procedure: as §1
LRRK2 Peptide Substrate Assay
a) 100 nl of a 1:4 serial dilution of test compound with a top final assay concentration of 30 μM is added to certain wells in a low volume 384 well black plate. 100 nl of DMSO is used in certain wells as controls.
as §2

[3] = GST-PS-Moesin (400-577) substrate, 2 mM ATP, read-out: LRRK2 alphascreen desensitized protein substrate assay (pIC50) (converted)
[4] = stated as threshold, read-out: pIC50 in the LRRK2 alphascreen desensitised protein substrate assay (bounds) (converted)
[5] = Biotin-LRRKtide peptide substrate, ATP at Km, read-out: LRRK2 peptide substrate assay (pIC50) (converted)
[6] = stated as threshold, read-out: pIC50 in the LRRK2 peptide substrate assay (bounds) (converted)

Compound | IC50 [2, 5] | IC50 [2, 6] | IC50 [1, 3] | IC50 [1, 4]
Cn1cc(-c2cc(C(=O)Nc3cccnc3)c(OCc3ccc(F)cc3)cc2CN2CCOCC2)cn1 [Example 17, 2-{[(4-Fluorophenyl)methyl]oxy}-5-(1-methyl-1H-pyrazol-4-yl)-4-(4-morpholinylmethyl)-N-3-pyridinylbenzamide] | 50.1 nM | ≤ 100 nM | 158 nM | ≤ 316 nM
Cc1nocc1NC(=O)c1cc(-c2cnn(C)c2)c(CN2CCOCC2)cc1OCc1ccc(F)cc1 [Example 18, 2-{[(4-Fluorophenyl)methyl]oxy}-N-(3-methyl-4-isoxazolyl)-5-(1-methyl-1H-pyrazol-4-yl)-4-(4-morpholinylmethyl)benzamide] | 12.6 nM | ≤ 100 nM | 398 nM | ≤ 25100 nM
Cn1cc(-c2cc(C(=O)Nc3cccnc3)c(OCc3ccc(F)cc3F)cc2CN2CCOCC2)cn1 [Example 20, 2-{[(2,4-Difluorophenyl)methyl]oxy}-5-(1-methyl-1H-pyrazol-4-yl)-4-(4-morpholinylmethyl)-N-3-pyridinylbenzamide] | 63.1 nM | ≤ 100 nM | 200 nM | ≤ 316 nM
Cc1nocc1NC(=O)c1cc(-c2cnn(C)c2)c(CN2CCOCC2)cc1OCc1ccc(F)cc1F [Example 22, 2-{[(2,4-Difluorophenyl)methyl]oxy}-N-(3-methyl-4-isoxazolyl)-5-(1-methyl-1H-pyrazol-4-yl)-4-(4-morpholinylmethyl)benzamide] |  | > 25100 nM |  | ≤ 25100 nM
Cn1cc(-c2cc(C(=O)Nc3cccnc3)c(OCc3ccccc3)cc2C(=O)N2CCOCC2)cn1 [Example 23, 5-(1-Methyl-1H-pyrazol-4-yl)-4-(4-morpholinylcarbonyl)-2-[(phenylmethyl)oxy]-N-3-pyridinylbenzamide] | 12.6 nM | ≤ 100 nM | 200 nM | ≤ 316 nM
Cn1cc(-c2cc(C(=O)Nc3ccnnc3)c(OCc3ccccc3)cc2C(=O)N2CCOCC2)cn1 [Example 24, 5-(1-Methyl-1H-pyrazol-4-yl)-4-(4-morpholinylcarbonyl)-2-[(phenylmethyl)oxy]-N-4-pyridazinylbenzamide] |  | ≤ 1260 nM |  | ≤ 25100 nM
Cc1nocc1NC(=O)c1cc(-c2cnn(C)c2)c(C(=O)N2CCOCC2)cc1OCc1ccccc1 [Example 25, N-(3-Methyl-4-isoxazolyl)-5-(1-methyl-1H-pyrazol-4-yl)-4-(4-morpholinylcarbonyl)-2-[(phenylmethyl)oxy]benzamide] |  | ≤ 100 nM |  | ≤ 25100 nM
Cn1cc(-c2cc(C(=O)Nc3cccnc3)c(OCc3ccc(F)cc3)cc2C(=O)N2CCOCC2)cn1 [Example 26, 2-{[(4-Fluorophenyl)methyl]oxy}-5-(1-methyl-1H-pyrazol-4-yl)-4-(4-morpholinylcarbonyl)-N-3-pyridinylbenzamide] |  | ≤ 100 nM |  | ≤ 316 nM
Cn1cc(-c2cc(C(=O)Nc3ccnnc3)c(OCc3ccc(F)cc3)cc2C(=O)N2CCOCC2)cn1 [Example 27, 2-{[(4-Fluorophenyl)methyl]oxy}-5-(1-methyl-1H-pyrazol-4-yl)-4-(4-morpholinylcarbonyl)-N-4-pyridazinylbenzamide] | 50.1 nM | ≤ 100 nM | 1580 nM | ≤ 25100 nM
Cn1cc(-c2cc(OCc3ccc(F)cc3)c(C(=O)Nc3cccnc3)cc2C(=O)N2CCOCC2)cn1 [Example 28, 2-{[(4-Fluorophenyl)methyl]oxy}-4-(1-methyl-1H-pyrazol-4-yl)-5-(4-morpholinylcarbonyl)-N-3-pyridinylbenzamide] |  | ≤ 1260 nM |  | ≤ 25100 nM

Continued, in another order:

IC50 [2, 5] | IC50 [2, 6] | Compound | IC50 [1, 3] | IC50 [1, 4]
6.31 nM | ≤ 10 nM | Cn1cc(-c2cc(C(=O)Nc3cccnc3)c(OCc3ccccc3)cc2C(=O)N2CCCCC2)cn1 [Example 31, 5-(1-Methyl-1H-pyrazol-4-yl)-2-[(phenylmethyl)oxy]-4-(1-piperidinylcarbonyl)-N-3-pyridinylbenzamide] | 50.1 nM | ≤ 316 nM
50.1 nM | ≤ 100 nM | CN(C)C(=O)c1cc(OCc2ccccc2)c(C(=O)Nc2cccnc2)cc1-c1cnn(C)c1 [Example 32] | 200 nM | ≤ 316 nM
 | ≤ 100 nM | O=C(Nc1cccnc1)c1cc(C(F)(F)F)c(CN2CCOCC2)cc1OCc1ccccc1 [Example 33, 2-(Benzyloxy)-4-(morpholinomethyl)-N-(pyridin-3-yl)-5-(trifluoromethyl)benzamide] |  | ≤ 316 nM
 | ≤ 1260 nM | O=C(Nc1ccnnc1)c1cc(C(F)(F)F)c(CN2CCOCC2)cc1OCc1ccccc1 [Example 34, 4-(4-Morpholinylmethyl)-2-[(phenylmethyl)oxy]-N-4-pyridazinyl-5-(trifluoromethyl)benzamide] |  | ≤ 25100 nM
 | ≤ 1260 nM | O=C(Nc1cccnc1)c1cc(C(F)(F)F)c(CN2CCCCC2)cc1OCc1ccccc1 [Example 35, 2-[(Phenylmethyl)oxy]-4-(1-piperidinylmethyl)-N-3-pyridinyl-5-(trifluoromethyl)benzamide] |  | ≤ 25100 nM
 | ≤ 1260 nM | O=C(Nc1ccnnc1)c1cc(C(F)(F)F)c(CN2CCCCC2)cc1OCc1ccccc1 [Example 36, 2-[(Phenylmethyl)oxy]-4-(1-piperidinylmethyl)-N-4-pyridazinyl-5-(trifluoromethyl)benzamide] |  | ≤ 25100 nM
